Laboratory results reported in patent publication US20070249607A1, “NK-1 AND SEROTONIN TRANSPORTER INHIBITORS” (Bristol-Myers Squibb Company, priority 2006, published 2007).
pIC50: −log10 of the molar value.

Key:
[1] = target: T1, human serotonin transporters (Homo sapiens, UniProt P31645); assay: Serotonin transporter binding assay ([3H]-citalopram competition, HEK-hSERT cell membranes); details: Table 2; HEK-hSERT membranes, [3H]-citalopram displacement; read-out: SERT IC50
T1 construct: expressed in transfected cells
T1 sequence (P31645 whole entry): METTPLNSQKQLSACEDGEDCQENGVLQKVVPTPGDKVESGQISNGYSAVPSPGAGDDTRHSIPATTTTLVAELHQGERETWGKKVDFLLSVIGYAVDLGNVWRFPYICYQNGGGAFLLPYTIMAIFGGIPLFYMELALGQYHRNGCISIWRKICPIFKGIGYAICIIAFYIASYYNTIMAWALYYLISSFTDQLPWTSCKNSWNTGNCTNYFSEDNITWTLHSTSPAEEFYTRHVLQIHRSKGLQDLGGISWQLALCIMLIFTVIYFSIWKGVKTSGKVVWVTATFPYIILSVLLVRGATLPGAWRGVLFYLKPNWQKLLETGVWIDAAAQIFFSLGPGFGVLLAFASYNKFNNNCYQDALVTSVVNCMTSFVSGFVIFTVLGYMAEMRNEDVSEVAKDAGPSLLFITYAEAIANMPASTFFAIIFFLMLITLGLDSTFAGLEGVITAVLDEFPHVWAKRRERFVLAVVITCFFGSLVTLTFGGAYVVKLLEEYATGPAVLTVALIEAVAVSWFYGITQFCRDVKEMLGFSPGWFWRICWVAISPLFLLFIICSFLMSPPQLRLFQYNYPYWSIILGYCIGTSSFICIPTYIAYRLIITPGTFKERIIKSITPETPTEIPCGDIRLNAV
Procedure, shortened: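 Competition binding against 1 nM [3H]-citalopram (1 hr, 25 °C, Tris pH 7.4 with NaCl/KCl) on stably transfected HEK-hSERT cell membranes, bound ligand collected on filters. Fluoxetine (10 μM) defined nonspecific binding; curve midpoint gives IC50, convertible to Ki by Cheng–Prusoff.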

[2] = target: T2, neurokinin-1 (NK-1) receptor (Homo sapiens, UniProt P25103); assay: NK-1 Binding assay ([125I] Substance P competition, U373 cell membranes); details: Table 2; U373 membranes, [125I] Substance P displacement; read-out: NK-1 IC50
T2 construct: a human glioblastoma-astrocytoma cell line that endogenously expresses the neurokinin-1 (NK-1) receptor; endogenous in cells; host or cells: U373 human glioblastoma-astrocytoma cells (membranes)
T2 sequence (P25103 whole entry): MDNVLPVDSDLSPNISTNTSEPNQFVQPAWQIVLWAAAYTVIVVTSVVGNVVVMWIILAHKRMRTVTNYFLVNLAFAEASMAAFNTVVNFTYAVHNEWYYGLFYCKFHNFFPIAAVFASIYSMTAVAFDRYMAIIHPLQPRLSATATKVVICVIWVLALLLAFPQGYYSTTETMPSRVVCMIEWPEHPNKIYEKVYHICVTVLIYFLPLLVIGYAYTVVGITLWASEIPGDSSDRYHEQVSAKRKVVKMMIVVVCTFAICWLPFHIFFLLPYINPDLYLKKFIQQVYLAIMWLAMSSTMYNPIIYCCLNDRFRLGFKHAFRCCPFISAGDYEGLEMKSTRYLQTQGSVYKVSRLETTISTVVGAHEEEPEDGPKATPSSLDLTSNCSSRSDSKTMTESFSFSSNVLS
Procedure, shortened: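 Membranes were prepared from U373 human glioblastoma-astrocytoma cells, which express NK-1 endogenously, in 50 mM Tris-HCl pH 7.4 with 3 mM MnCl2, BSA and protease inhibitors. IC50 taken as the midpoint of the specific-binding displacement curve.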

| SMILES | pIC50 [1] | pIC50 [2] |
| --- | --- | --- |
| CCCCOc1ccc(-c2cc(COCC3(c4ccccc4)CCNCC3)cc(C(F)(F)F)c2)cc1 | 7.00 to 11.00 | 7.00 to 11.00 |
| COc1ccc(-c2cc(COCC3(c4ccccc4)CCNCC3)cc(C(F)(F)F)c2)c(OC)n1 | 7.00 to 11.00 | 7.00 to 11.00 |
| FC(F)(F)c1cc(COCC2(c3ccccc3)CCNCC2)cc(-c2ccc(C3CCNCC3)nc2)c1 | 7.00 to 11.00 | < 6.52 |
| Fc1ccc(F)c(-c2cc(COCC3(c4ccccc4)CCNCC3)cc(C(F)(F)F)c2)c1 | 7.00 to 11.00 | 7.00 to 11.00 |
| FC(F)(F)c1cc(COCC2(c3ccccc3)CCNCC2)cc(-c2cc(Cl)ccc2Cl)c1 | 7.00 to 11.00 | < 6.52 |
| Cc1ccc(C)c(-c2cc(COCC3(c4ccccc4)CCNCC3)cc(C(F)(F)F)c2)c1 | 7.00 to 11.00 | < 6.52 |
| COc1ccc(F)cc1-c1cc(COCC2(c3ccccc3)CCNCC2)cc(C(F)(F)F)c1 | 7.00 to 11.00 | 6.52 to 7.00 |
| COC(=O)c1cccc(-c2cc(COCC3(c4ccccc4)CCNCC3)cc(C(F)(F)F)c2)c1 | 7.00 to 11.00 | 6.52 to 7.00 |
| CC(C)OC(=O)c1cccc(-c2cc(COCC3(c4ccccc4)CCNCC3)cc(C(F)(F)F)c2)c1 | 6.52 to 7.00 | < 6.52 |
| O=C(Nc1ccc(-c2cc(COCC3(c4ccccc4)CCNCC3)cc(C(F)(F)F)c2)cc1)OCc1ccccc1 | 7.00 to 11.00 | 7.00 to 11.00 |
| FC(F)(F)c1cc(COCC2(c3ccccc3)CCNCC2)cc(-c2cccc(OCc3ccccc3)c2)c1 | 7.00 to 11.00 | 7.00 to 11.00 |
| Fc1cc(-c2cc(COCC3(c4ccccc4)CCNCC3)cc(C(F)(F)F)c2)cc(F)c1F | 7.00 to 11.00 | 7.00 to 11.00 |
| CCS(=O)(=O)c1ccc(-c2cc(COCC3(c4ccccc4)CCNCC3)cc(C(F)(F)F)c2)cc1 | 7.00 to 11.00 | 6.52 to 7.00 |
| COc1cc(-c2cc(COCC3(c4ccccc4)CCNCC3)cc(C(F)(F)F)c2)ccc1O | 7.00 to 11.00 | 7.00 to 11.00 |
| CCCCc1ccc(-c2cc(COCC3(c4ccccc4)CCNCC3)cc(C(F)(F)F)c2)cc1 | 7.00 to 11.00 | 7.00 to 11.00 |
| CC(C)c1ccc(-c2cc(COCC3(c4ccccc4)CCNCC3)cc(C(F)(F)F)c2)cc1 | 7.00 to 11.00 | < 6.52 |
| O=C(OCc1ccccc1)c1ccc(-c2cc(COCC3(c4ccccc4)CCNCC3)cc(C(F)(F)F)c2)cc1 | 7.00 to 11.00 | 7.00 to 11.00 |

| SMILES | pIC50 [1] | pIC50 [2] |
| --- | --- | --- |
| CCOC(=O)c1cccc(-c2cc(COCC3(c4ccccc4)CCNCC3)cc(C(F)(F)F)c2)c1 | 7.00 to 11.00 | 6.52 to 7.00 |
| O=C(OCc1ccccc1)c1cccc(-c2cc(COCC3(c4ccccc4)CCNCC3)cc(C(F)(F)F)c2)c1 | 7.00 to 11.00 | < 6.52 |
| O=[N+]([O-])c1ccccc1-c1cc(COCC2(c3ccccc3)CCNCC2)cc(C(F)(F)F)c1 | 7.00 to 11.00 | 7.00 to 11.00 |
| CC(=O)Nc1ccc(-c2cc(COCC3(c4ccccc4)CCNCC3)cc(C(F)(F)F)c2)cc1 | 7.00 to 11.00 | 7.00 to 11.00 |
| CCOC(=O)c1ccccc1-c1cc(COCC2(c3ccccc3)CCNCC2)cc(C(F)(F)F)c1 | 6.52 to 7.00 | < 6.52 |
| COc1ccc(C)cc1-c1cc(COCC2(c3ccccc3)CCNCC2)cc(C(F)(F)F)c1 | 7.00 to 11.00 | < 6.52 |
| COC(=O)c1cc(-c2cc(COCC3(c4ccccc4)CCNCC3)cc(C(F)(F)F)c2)cc([N+](=O)[O-])c1 | 7.00 to 11.00 | < 6.52 |
| CC(C)OC(=O)c1ccc(-c2cc(COCC3(c4ccccc4)CCNCC3)cc(C(F)(F)F)c2)cc1 | 7.00 to 11.00 | 7.00 to 11.00 |
| COc1cccc(-c2cc(COCC3(c4ccccc4)CCNCC3)cc(C(F)(F)F)c2)c1OC | 6.52 to 7.00 | 6.52 to 7.00 |
| COc1ccc2cc(-c3cc(COCC4(c5ccccc5)CCNCC4)cc(C(F)(F)F)c3)ccc2c1 | 7.00 to 11.00 | < 6.52 |
| CCOc1ccc2cc(-c3cc(COCC4(c5ccccc5)CCNCC4)cc(C(F)(F)F)c3)ccc2c1 | 7.00 to 11.00 | 6.52 to 7.00 |
| CC(C)Oc1ccc(-c2cc(COCC3(c4ccccc4)CCNCC3)cc(C(F)(F)F)c2)cc1 | 6.52 to 7.00 | 6.52 to 7.00 |
| CC(=O)c1ccccc1-c1cc(COCC2(c3ccccc3)CCNCC2)cc(C(F)(F)F)c1 | 6.52 to 7.00 | < 6.52 |
| COC(=O)c1ccc(-c2cc(COCC3(c4ccccc4)CCNCC3)cc(C(F)(F)F)c2)cc1 | 7.00 to 11.00 | 7.00 to 11.00 |
| Cc1ccc(-c2cc(COCC3(c4ccccc4)CCNCC3)cc(C(F)(F)F)c2)c2ccccc12 | 6.52 to 7.00 | < 6.52 |
| Cc1cccc(-c2cc(COCC3(c4ccccc4)CCNCC3)cc(C(F)(F)F)c2)c1C | 7.00 to 11.00 | 6.52 to 7.00 |
